Experimental data: EP2966448B1, “METHOD FOR THE PREDICTION OR PROGNOSIS OF THE RESPONSE OF A HUMAN SUBJECT SUFFERING FROM CANCER TO TREATMENT WITH AN ANTAGONIST OF THE NK1 RECEPTOR” (priority 2013, dated 2014)
Where two headings read alike, the source gives them in different places.

Key:
[1] = system: Ovarian carcinoma; test: Inhibition of primary tumor cell cultures (48 hours) vs NK1 receptor immunostaining (Example 1); format: cell-based; conditions: Homo sapiens, 1 micromolar, read-out: Percentage of inhibition of cell cultures
Experimental: (§1) Cell cultures. To obtain tumor cells from human primary tumors we used the method described in De Bari et al. (De Bari et al. 2001). Briefly, small pieces of the tumors were digested into a hyaluronidase solution (Sigma-Aldrich, USA) at a concentration of 1 mg/ml during 15 minutes at 37°C, and then they were treated with 6 mg/ml of collagenase type IV (Invitrogen) during 2 hours at 37°C. Consecutively, cells were washed, and resuspended in the DMEM culture medium with high concentration of glucose (Dulbecco's Modified Eagle's Medium, Invitrogen) supplemented with 1% of antibiotics-antimycotics (Invitrogen) and with 1% of sodium pyruvate (Invitrogen), and the cells were seeded in culture slides at a concentration of 10.000 cells per square centimeter. When cells reached confluence, the adherent cells were separated using sterile trypsin at 0,5% (Invitrogen) and they were used among passages 3 and 9. For the assays shown next, tumor cells were seeded on slides at a concentration of 25.000 cells per well. A total of 6 wells containing the tumor cells were used as survival control. […] All the cultures were kept during 48 hours and later on recollected for their analysis.
(§2) Immunohistochemistry techniques. The presence of NK1 receptors was also analyzed using immunohistochemistry techniques. Briefly, a sample of each of the cultures of the cell lines used in the present invention, was centrifuged (5 minutes at 1.500 rpm) and the pellet obtained was dehydrated using increasing concentrations of ethanol and, finally, xylol. Then, said dehydrated samples were embedded in paraffin, creating a block of cells. Such paraffin blocks were cut with a microtome at 5 microns thickness, and were placed on microscope slides adequate to perform immunohistochemistry techniques. Consecutively, they were de-paraffinized by immersing them in xylol, to be finally hydrated using a solution containing decreasing concentrations of ethanol, and finally submerged them into water. […] After this, the samples were left to cool down at room temperature for 10 minutes. The endogenous peroxidase activity was blocked with 3% peroxide of hydrogen for 30 minutes at room temperature. After washing the samples with 0.05 M of Tris buffer, they were incubated with 10% non-immune pork serum at for 30 minutes at room temperature. To analyze the expression of NK1 receptors, the cellular samples were incubated in the presence of anti-NK1 antibodies (S8305, Sigma-Aldrich) diluted 1:1000, overnight at 4°C. Afterwards, the samples were washed in Tris buffer 0.05 M at room temperature. The next step was the addition of Envision System-HRP (Dako) reagents for 30 minutes at room temperature. Then, the samples were washed again in Tris buffer 0.05 M and the immunoreactivity was visualized through light microscopy with a chromogenic solution containing 3,3'-Diaminobenzidine (DAB+; Dako, USA). To differentiate the cell nuclei, they were slightly stained with hematoxylin. As negative control, it was used samples not incubated with the primary antibody anti-NK1, which was replaced by non-immune serum. All the samples were evaluated.
(§3) To value the immunostaining in each of the cases six cuts were performed to be analyzed by the immunohistochemistry technique. In each of the six cuts, it was counted cells in 20 fields (magnification 400x) using an Olympus microscope (model CX31). In each field it was counted the total number of cells and the number of cells presenting immunostaining, calculating afterwards the percentage of cells which presented immunostaining.

[2] = system: Non Hodgkin Lymphoma T; test: as above; format: cell-based; conditions: Homo sapiens, 1 micromolar, read-out: Percentage of inhibition of cell cultures
Experimental: as §1, §2, §3

[3] = system: Colon carcinoma (Adenocarcinoma); test: Inhibition of primary tumor cell cultures vs Kras mutation (Example 2); format: cell-based, human; conditions: 100 micromolar; for inhibition at 100 µM: Homo sapiens, read-out: Percentage of inhibition of cell cultures; for Percentage of inhibition of cell cultures: Colon carcinoma (Adenocarcinoma)
Experimental: as §1
(§4) In each case the presence or not of mutations in K-ras gene was determined.
(§5) To determine the existence of mutations in the K-ras gene DNA from cancer tumor cells was extracted from samples obtained from the different cancer tumor cells, using DNA extraction kits from Takara (Madison, WI, US) or Ambion (Huntingdon, Cambridgeshire, United Kingdom), following the manufacturer's instructions, and as it has been previously published (Di Fiore F, et al. 2007). Consecutively it was analyzed by sequencing the exon 2 of the KRAS gene, , by means of PCR amplification from previously extracted cancer tumor DNA, using the following sense primer (SEQ ID NO. 15): 5'-[sequence]-3' and anti-sense primer (SEQ ID NO. 16): 5'-[sequence]-3'. After the purification using the Qiagen extraction kit, the PCR products were sequenced using the Big Dye Terminator Kit V3.1 (Applied Biosystems, Foster City, CA, U.S.) and an ABI Prism 377 or 3100 DNA sequencer (Applied Biosystems). The presence of a heterozygous mutation in the KRAS gene in cancer tumor cells of the cultures was defined as the appearance of a mutant peak of a height of at least a third of the wild type. All the sequence analysis were executed at least twice in two independent PCR.
(§6) The antibody against NK1 receptor (Table 16) was used at 1/50 concentration. The percentages of inhibition are expressed in percentage of variation in relation to control ± standard deviation.

[4] = system: Melanoma; test: Inhibition of primary tumor cell cultures (48 hours) vs NK1 receptor immunostaining (Example 1); format: cell-based; conditions: Homo sapiens, 1 micromolar, read-out: Percentage of inhibition of cell cultures
Experimental: as §1, §2, §3

[5] = system: Urinary bladder carcinoma; test: as above; format: cell-based; conditions: Homo sapiens, 1 micromolar, read-out: Percentage of inhibition of cell cultures
Experimental: as §1, §2, §3

[6] = system: Carcinoma of the uterine cervix (Squamous cell carcinoma); test: Inhibition of primary tumor cell cultures vs Kras mutation (Example 2); format: cell-based, human; conditions: 100 micromolar; for inhibition at 100 µM: Homo sapiens, read-out: Percentage of inhibition of cell cultures; for Percentage of inhibition of cell cultures: Carcinoma of the uterine cervix (Squamous cell carcinoma)
Experimental: as §1, §4, §5, §6

[7] = system: Glioma (astrocytoma); test: as above; format: cell-based, human; conditions: 100 micromolar; for inhibition at 100 µM: Homo sapiens, read-out: Percentage of inhibition of cell cultures; for Percentage of inhibition of cell cultures: Glioma (astrocytoma)
Experimental: as §1, §4, §5, §6

[8] = system: Renal cell carcinoma (clear cell renal cell carcinoma); test: as above; format: cell-based, human; conditions: 100 micromolar; for inhibition at 100 µM: Homo sapiens, read-out: Percentage of inhibition of cell cultures; for Percentage of inhibition of cell cultures: Renal cell carcinoma (clear cell renal cell carcinoma)
Experimental: as §1, §4, §5, §6

[9] = system: human primary tumor cells; test: Inhibition of primary tumor cell cultures vs constitutively activated form of NK1 receptor (Example 7; tumor type per table line); format: cell-based
Experimental: as §1
It was determined the increase or not in proliferation with the exposition to substance P (NK1 receptor agonist), so that for the cell cultures which grew independently from the exposition to substance P, it was considered that they have constitutively activated forms of such receptor, because a mitogenic signal independently from the presence of the agonist was transmitted. It was checked that all tumor cells presented integrity in the MAP Kinases and PI3 Kinases pathways, as wel as in the K-ras gene, and the protein derived from it.

[10] = NK1 receptor immunostaining Group 1 (less than 20% of the cells)
[11] = NK1 receptor immunostaining Group 2 (20-80% of the cells)
[12] = NK1 receptor immunostaining Group 3 (more than 80% of the cells)
[13] = NK1 receptor immunostaining Intensity grade 1
[14] = NK1 receptor immunostaining Intensity grade 2
[15] = NK1 receptor immunostaining Intensity grade 3
[16] = Cases with Kras non-mutated (wild type)

| SMILES | inhibition at 1 µM [1, 10] | inhibition at 1 µM [1, 11] | inhibition at 1 µM [1, 12] | inhibition at 1 µM [1, 13] | inhibition at 1 µM [1, 14] | inhibition at 1 µM [1, 15] | inhibition at 1 µM [2, 10] | inhibition at 1 µM [2, 11] | inhibition at 1 µM [2, 12] | inhibition at 1 µM [2, 13] | inhibition at 1 µM [2, 14] | inhibition at 1 µM [2, 15] | inhibition at 1 µM [4, 10] | inhibition at 1 µM [4, 11] | inhibition at 1 µM [4, 12] | inhibition at 1 µM [4, 13] | inhibition at 1 µM [4, 14] | inhibition at 1 µM [4, 15] | inhibition at 1 µM [5, 10] | inhibition at 1 µM [5, 11] | also measured |
| --- | --- | --- | --- | --- | --- | --- | --- | --- | --- | --- | --- | --- | --- | --- | --- | --- | --- | --- | --- | --- | --- |
| CC(=O)N1CCN([C@H]2CCN(C(=O)N(C)[C@H](C)c3cc(C(F)(F)F)cc(C(F)(F)F)c3)[C@@H](c3ccc(F)cc3C)C2)CC1 [Casopitant] | 14 ± 3% | 49 ± 3% | 94 ± 4% | 33 ± 4% | 54 ± 4% | 91 ± 3% | 14 ± 2% | 46 ± 6% | 94 ± 5% | 36 ± 5% | 54 ± 5% | 92 ± 2% | 15 ± 3% | 46 ± 4% | 93 ± 5% | 34 ± 3% | 52 ± 4% | 93 ± 3% | 17 ± 3% | 45 ± 3% | inhibition at 100 µM ([3]; Cases with Kras mutated): 32 ± 4%; inhibition at 100 µM [3, 16]: 94 ± 6%; inhibition at 1 µM [5, 12]: 94 ± 6%; inhibition at 1 µM [5, 13]: 34 ± 4%; inhibition at 1 µM [5, 14]: 56 ± 4%; inhibition at 1 µM [5, 15]: 93 ± 4%; inhibition at 100 µM ([6]; Cases with Kras mutated): 27 ± 3%; inhibition at 100 µM [6, 16]: 93 ± 3%; inhibition at 100 µM ([7]; Cases with Kras mutated): 26 ± 4%; inhibition at 100 µM [7, 16]: 94 ± 6%; inhibition at 100 µM ([8]; Cases with Kras mutated): 27 ± 4%; inhibition at 100 µM [8, 16]: 94 ± 3% |
| Cc1cc(F)ccc1[C@H]1CNCCN1C(=O)N(C)[C@H](C)c1cc(C(F)(F)F)cc(C(F)(F)F)c1 [Vestipitant] | 14 ± 4% | 47 ± 4% | 95 ± 5% | 15 ± 3% | 46 ± 2% | 95 ± 4% | 13 ± 4% | 46 ± 4% | 93 ± 6% | 17 ± 2% | 48 ± 4% | 93 ± 5% | 16 ± 3% | 45 ± 4% | 92 ± 6% | 15 ± 3% | 48 ± 4% | 92 ± 4% | 15 ± 3% | 47 ± 4% | Percentage of inhibition of cell cultures ([3]; Cases with Kras mutated): 33±5 percentage; Percentage of inhibition of cell cultures [3, 16]: 96±5 percentage; inhibition at 1 µM [5, 12]: 92 ± 5%; inhibition at 1 µM [5, 13]: 17 ± 3%; inhibition at 1 µM [5, 14]: 46 ± 3%; inhibition at 1 µM [5, 15]: 92 ± 3%; Percentage of inhibition of cell cultures ([6]; Cases with Kras mutated): 25±5 percentage; Percentage of inhibition of cell cultures [6, 16]: 94±3 percentage; Percentage of inhibition of cell cultures ([7]; Cases with Kras mutated): 25±3 percentage; Percentage of inhibition of cell cultures [7, 16]: 97±5 percentage; Percentage of inhibition of cell cultures ([8]; Cases with Kras mutated): 25±5 percentage; Percentage of inhibition of cell cultures [8, 16]: 95±6 percentage |
| C[C@@H](O[C@H]1OCCN(Cc2n[nH]c(=O)[nH]2)[C@H]1c1ccc(F)cc1)c1cc(C(F)(F)F)cc(C(F)(F)F)c1 [Aprepitant] | – | – | – | – | – | – | – | – | – | – | – | – | – | – | – | – | – | – | – | – | Percentage of inhibition of cell cultures ([9]; Non Hodgkin Lymphoma B (diffuse B cell lymphoma), Group I (constitutively activated form of NK1 receptor)): 74±6%; Percentage of inhibition of cell cultures ([9]; Non Hodgkin Lymphoma T (diffuse T cell lymphoma), Group I (constitutively activated form of NK1 receptor)): 75±6%; Percentage of inhibition of cell cultures ([9]; Non Hodgkin Lymphoma T (diffuse T cell lymphoma), Group II (normal form of the receptor)): 96±4%; inhibition of tumor cell growth ([9]; group with little proliferating response when exposed to substance P (constitutively activated form of NK1 receptor), compared): higher inhibition |
